Laboratory results as given in PMC9239272 (mBio, 2022).

Columns and labels:
SARS2 M^pro P168S [1] = format: cell-based, SARS-CoV-2
SARS2 M^pro Q189N = format: cell-based, SARS-CoV-2
SARS2 M^pro Q189E = format: cell-based, SARS-CoV-2
SARS2 M^pro P168G [2] = format: cell-based, SARS-CoV-2
SARS2 M^pro M49D = format: cell-based, SARS-CoV-2
SARS2 M^pro M49I = format: cell-based, SARS-CoV-2
[3] = test system: SARS2 H132 (Omicron) M^pro; format: cell-based, SARS-CoV-2
SARS2 M^pro P168S [4] = format: cell-based, SARS-CoV-2; remark: listed apart in the source
P168G SARS2 M^pro = P168G SARS2 M^pro (Severe acute respiratory syndrome coronavirus 2, UniProt P0DTD1, P3431G); format: biochemical, SARS-CoV-2
P168S SARS2 M^pro = P168S SARS2 M^pro (Severe acute respiratory syndrome coronavirus 2, UniProt P0DTD1, P3431S); format: biochemical, SARS-CoV-2
SARS2 M^pro P168G [5] = format: cell-based, SARS-CoV-2; remark: listed apart in the source

| Compound | effect of amino acid change on inhibition (SARS2 M^pro P168S [1]) | decrease of inhibitor efficacy versus wild type (SARS2 M^pro Q189N) [fold] | effect of amino acid change on inhibition (SARS2 M^pro Q189E) | effect of amino acid change on inhibition (SARS2 M^pro P168G [2]) | decrease of inhibitor efficacy versus wild type (SARS2 M^pro M49D) [fold] | effect of amino acid change on inhibition (SARS2 M^pro M49I) | sensitivity of Omicron (P132H) Mpro [3] | average increase in luciferase signal over wild type (SARS2 M^pro P168S [1]) [fold] | eGFP signal localization compared with wild-type construct (SARS2 M^pro P168S [4]) | effect of amino acid change on inhibition (SARS2 M^pro Q189N) | average increase in luciferase signal over wild type (SARS2 M^pro P168G [2]) [fold] | lower IC50 than wild-type Mpro (P168G SARS2 M^pro) | lower IC50 than wild-type Mpro (P168S SARS2 M^pro) | eGFP signal localization compared with wild-type construct (SARS2 M^pro P168G [5]) | effect of amino acid change on inhibition (SARS2 M^pro M49D) |
| --- | --- | --- | --- | --- | --- | --- | --- | --- | --- | --- | --- | --- | --- | --- | --- |
| GC376 | minimal effects | 1.8 | minimal effects | minimal effects | 2.1 | minimal effects | – | – | – | – | – | – | – | – | – |
| CC(C)(C)[C@H](NC(=O)C(F)(F)F)C(=O)N1C[C@H]2[C@@H]([C@H]1C(=O)N[C@H](C#N)C[C@@H]1CCNC1=O)C2(C)C [nirmatrelvir] | – | – | – | – | – | – | retains sensitivity | – | – | – | – | – | – | – | – |
| CC(C)(C)NC(=O)N[C@H](C(=O)N1C[C@H]2[C@@H]([C@H]1C(=O)NC(CC1CCC1)C(=O)C(N)=O)C2(C)C)C(C)(C)C (stereo partly shown) [boceprevir] | hypersensitivity | – | slight resistance | hypersensitivity | – | slight resistance | – | 4 | increase in membrane-tethered cytosolic eGFP signal | slight resistance | 4 | approximately 10 fold | approximately 10 fold | increase in membrane-tethered cytosolic eGFP signal | slight resistance |
